Reference: patent US20190307664A1, “METHOD AND COSMETIC COMPOSITION FOR ENHANCED TRANSDERMAL DELIVERY OF ALKYL SUBSTITUTED RESORCINOL” (CONOPCO, INC., D/B/A UNILEVER, priority 2016, published 2019)

System: HeMnDP melanocyte monoculture
Assay: Melanin content assay in melanocyte monoculture (after Calcein-AM viability assay)
Type: cell-based
Conditions: 72 hours
Protocol: All samples were analysed to determine the extent of their ability to bring about skin lightening by checking the cell viability and melanin content assay. Set Up of Cultures Involved the Following Steps: • ([…] per well (single wells/treatment) in 24-well Nunc plates on Day-0 were seeded to establish a melanocyte monoculture system. • (ii) The volume of media per well was limited to 1 ml of Melanocyte Growth Media (MGM) • (iii) 24 hours later, fresh media containing actives was added again. At this stage also, 1 ml of MGM was used. • (iv) Plates were incubated for 72 hours at 37° C. in a CO2 incubator. • (v) At the end, the plates were sent for Calcein assay, described hereinafter, followed by melanin content estimation. Calcein-AM Viability Assay • (i) The spent media was removed from each well of a 24-well plate and rinsed once with 400 μl of 1×PBS-Ca-Mg (see preparation below), including wells without cells (Control wells). • (ii) One μM Calcein-AM (working stock) in 1×PBS-Ca-Mg from 1 mM stock (e.g. 10 μl of 1 mM Calcein stock in 100% DMSO in 10 ml of 1×PBS-Ca-Mg) was prepared. About 400 μl of Calcein-AM working stock solution was added to each well, including the controls cells. • (iii) The plates were covered with aluminum foil and were incubated for 30 minutes in a CO2 incubator. • (iv) In the meantime, fluorescence was measured (excitation at 490 nm and emission at 520 nm) using TECAN® instrument after 30 minutes of dye incubation. • (v) After reading the plates, the buffer containing Calcein was removed and melanin content assay was then carried out. […] The % inhibition was then calculated for each case. Higher values of % inhibition indicate an active ingredient's potential to serve as a skin lightening agent. The tests of Example 2 were repeated with isonicotinamide instead of picolinamide.

Which results are given for CCCCCCc1ccc(O)cc1O [Ex-B, 4-hexyl resorcinol]?
Inhibition in melanin synthesis (4-hexyl Resorcinol 0.192 μg, Example 2): 3%; Inhibition in melanin synthesis (4-hexyl Resorcinol 0.192 μg, Example 3): 3%; Inhibition in melanin synthesis (4-hexyl Resorcinol 1.92 μg, Example 2): 31%; Inhibition in melanin synthesis (4-hexyl Resorcinol 1.92 μg, Example 3): 31%

With NC(=O)c1ccccn1 [Ex-D, Picolinamide] as the compound, how does the “Inhibition in melanin synthesis” value (picolinamide 122 μg) read?
Its value is 1%.

What about the “Inhibition in melanin synthesis” value (picolinamide 1220 μg) of the same compound?
Its value is 27%.

For NC(=O)c1ccncc1 [Ex-I, Isonicotinamide], which “Inhibition in melanin synthesis” value (Isonicotinamide 122 μg) is on record?
The value was −16%.

And the “Inhibition in melanin synthesis” value (Isonicotinamide 1220 μg)?
The value was 10%.
